The results in this text go back to patent publication EP3495372B1 (priority 2017, dated 2019).

Data set [1] relates to cultured human blood cells. The experiment in a line: Nucleic acid oxidation, 8-hydroxy-2'-deoxyguanosine assay. Type of data set: cell-based. The text has this: (§1) All volunteers have signed informed consent.
Nucleic acid oxidation: 8-hydroxy-2'-deoxyguanosine assay kits (Cayman Chemical®) was used for determining 8- OH-dG levels in the cultures. It is a competitive assay that can be used for the quantification of 8-OHdG in homogenates and recognizes both free 8-OHdG and DNA-incorporated 8-OH-dG. This assay depends on the competition between 8-OH-dG and 8-OH-dGacetylcholinesterase (AChE) conjugate for a limited amount of 8-OH-dG monoclonal antibody (Abdel-Wahab BA, Metwally ME. Ginkgo biloba enhances the anticonvulsant and neuroprotective effects of sodium valproate against kainic acid-induced seizures in mice. J Pharmacol Toxicol. 2011; 6:679-690). All procedures were carried out in accordance with the provider's manual.
The levels of 8-OH-dG, a sensitive marker of oxidative DNA damage, were quantified about mitomycin (MMC) treatment. […] On the contrary, 8-OH-dG levels were not increased in the blood cells that were treated with BLA, MEM, and LA concentrations.

In data set [2] the test system is cultured human lymphocytes. Description: SCE assay (genotoxicity). Format: cell-based. The protocol: as §1
SCE assay: to provide successive visualization of SCEs, 5-bromo-2-deoxyuridine was added at culture cells. Exactly 70 h and 30 min after beginning of the incubations, demecolcine ([…]) was added to the cultures. After hypotonic treatment (0.075 M KCl), followed by three repetitive cycles of fixation in methanol/acetic acid solution (3:1, v/v), centrifugation and re-suspension, the cell suspension was dropped onto chilled, grease-free microscopic slides, air-dried, aged for three days, and then differentially stained for the inspection of the SCE rate according to the fluorescence plus Giemsa (FPG) procedure. For each treatment condition, well-spread twenty-five second division metaphases containing 42-46 chromosomes per cell were scored and the values obtained were calculated as SCEs per cell.
The frequencies of sister chromatid exchanges (SCEs) with increasing BLA concentrations were investigated in cultured human lymphocytes.

The test system of data set [3] is platelet aggregation induced by ADP. The experiment in a line: Optical aggregometry in platelet-rich plasma, aggregation induced by ADP. Format: cell-based, human. The following applies: ADP (20 µM). The protocol: (§2) Blood Collection and Preparation of Platelet-Rich Plasma: blood was collected from healthy and non-smoking volunteers (all volunteers have signed informed consent) into a polypropylene tube containing 0.105 M buffered sodium citrate. None of the donors had received any medication known to affect platelet function for at least 10 days before blood collection. Platelet-rich plasma (PRP) was collected by the centrifugation of whole blood at 150 g for 15 min at room temperature. Subsequently, platelet-poor plasma (PPP) was collected by the centrifugation at 2000 g for 20 min at room temperature. The platelet count was adjusted to 2x10^8 cells /ml with PPP.
(§3) Incubation of PRP with BLA and LA: PRP was incubated with BLA and LA (25, 50, and 100 µM) for 15 minutes at 37 °C. PRP without any compound was used as a control.
(§4) Optical Aggregometry in Platelet-Rich Plasma: the measurement of platelet aggregation in PRP was performed using four-channel aggregometer (APACT 4004; LABiTec, Ahrensburg, Germany). After the incubation of PRP with three different compounds, platelet aggregation was stimulated by ADP (20 µM) and Collagen (10 µg/mL) and percentage of aggregation was monitored for 10 minutes. The percentage of aggregation, slope and shape change parameters were monitored for 10 minutes. Assay was started 1 hour after blood was collected and finished within 3 hours (Hao HZ, He AD, Wang DC, Yin Z, Zhou YJ, Liu G, Liang ML, Da XW, Yao GQ, Xie W, Xiang JZ, Ming ZY. Antiplatelet activity of loureirin A by attenuating Akt phosphorylation: In vitro studies. Eur. J. Pharmacol. 2015; 746:63-9).

For data set [4], the system named is platelet aggregation induced by collagen. Description: Optical aggregometry in platelet-rich plasma, aggregation induced by collagen. Format: cell-based, human. The settings on record: Collagen (10 µg/mL). The protocol:
as §2, §3, §4

Another data set has as its system human neuron-like cells. Description: Apoptosis-Necrosis assay (Annexin V-FITC/PI flow cytometry). The following applies: concentration not given. Type of data set: cell-based. The protocol:
Apoptosis-Necrosis assay: the frequencies of viable, apoptotic and necrotic cells were detected with the Annexin V-FITC apoptosis detection Kit I (BD Pharmingen, USA). Briefly, 5 x 10^4 cells were collected by centrifugation and cells resuspended in 500 µL of 1X binding buffer. Then, 5 µL of Annexin V-FITC and 5 µl of propidium iodide (PI 50 µg/ml) were added to the cultures and incubated 5 min in the dark. After that, cells fixed with 4% paraformaldehyde in phosphate buffered saline at 4 °C for 30 min. Cells from each well were stained according to the manufacturer's instructions and analyzed using a flow cytometer (CyFlow Cube 6, Partec, Germany). A computer system was used for data acquisition and analysis. Four different populations of cells are detected with the Annexin V-FITC kit: viable cells that are annexin negative and PI negative and express no fluorescence, early apoptotic cells that are annexin positive and PI negative and that express green fluorescence, late apoptotic/necrotic cells that are annexin positive and PI positive and that express green and orange fluorescence, necrotic cells that are annexin negative and PI positive and that express orange fluorescence (Majstorovic I, Vucevic D, Pavlovic B, Vasilijic S, Colic M. An anti-DEC-205 monoclonal antibody stimulates binding of thymocytes to rat thymic dendritic cells and promotes apoptosis of thymocytes. Cent Eur J Immunol. 2014; 39:411-418) .
BLA was considered as more able to protect the human neuron-like cells from Aβ1-42-induced necrosis and late apoptosis than LA or MEM.

In data set [5] the test system is differentiated SH-SY5Y cells. Description: Apoptosis detection by Hoechst 33258 staining. Format: cell-based, human. The following applies: 25 and 50 µM co-treatment, 20 µM Aβ1-42, 24 h. The protocol: Apoptosis detection by Hoechst 33258 staining: Hoechst 33258 staining was used to detect apoptotic nuclei. […] Then, cells fixed with 4% paraformaldehyde in phosphate buffered saline at 4 °C for 30 min. After washing cells with PBS, the nuclear DNAs were incubated with […] Hoechst 33258 fluorescent dye for 5 min at room temperature. Cells were observed and photographed under a fluorescence microscopy (Leica® DM IL LED).

The structures appear in SMILES notation. Read-outs that look alike come from different tables or passages of the source. Marks after values point to notes of the source that are not given here.

For the compound `O=C(O)CCCCC1CCSS1` (centres unmarked) [LA, 1,2-dithiolane-3-pentanoic acid], the 8-OH-dG levels entry in data set [1] is given as “not increased”. The “frequencies of sister chromatid exchanges (SCEs)” value in data set [2] is on record as “not higher than the control group”. Further, the “Max. Aggregation (%)” value is recorded as 55.8* % in data set [3] (25 µM); 47.8* % in data set [3] (50 µM); 44.6* % in data set [3] (100 µM); 47.9* % in data set [4] (25 µM); 41.6* % in data set [4] (50 µM); 35.8* % in data set [4] (100 µM). The “Shape change (%)” value in data set [3] (25 µM) is 17.4* %; in data set [3] (50 µM), 14.5* %; in data set [3] (100 µM) it was 13.8* %; in data set [4] (25 µM), 27.9* %; in data set [4] (50 µM), 23.4* %; in data set [4] (100 µM) it was 20.8* %. Moreover, the “Slope (%)” value in data set [3] (25 µM) is reported as 69.8* %; in data set [3] (50 µM), 61.4* %; in data set [3] (100 µM), 58.0* %; in data set [4] (25 µM), 43.6* %; in data set [4] (50 µM), 37.2* %; in data set [4] (100 µM) it was 31,4* %. Moreover, in the data set on human neuron-like cells, the “decreased the necrotic cell percentage by Aβ1-42” value was 61.67%. Besides, the “nuclear integrity and apoptosis by Aβ1-42 (Hoechst 33258)” value in data set [5] is “protected nuclear integrity and inhibited apoptosis”.

Consider `CC1(C)C2CC3OB(CNC(=O)CCCC[C@H]4CCSS4)O[C@]3(C)C1C2` (stereo partly drawn) [BLA, 5-((S)-1,2-dithiolan-3-yl)-N-(((3aR)-3a,5,5-trimethylhexahydro-4,6-methanobenzo[d][1,3,2]dioxaborol-2-yl)methyl)pentanamide], for which, in data set [1], the 8-OH-dG levels result is listed as “not increased”. The “frequencies of sister chromatid exchanges (SCEs)” value in data set [2] (versus control group, P > 0.05) is on record as “not significant differences”. Moreover, the “Max. Aggregation (%)” value was 49,8* % in data set [3] (25 µM); 41.3* % in data set [3] (50 µM); 32.2* % in data set [3] (100 µM); 45.7* % in data set [4] (25 µM); 31.8* % in data set [4] (50 µM); 7.9* % in data set [4] (100 µM). Further, the “Shape change (%)” value in data set [3] (25 µM) is reported as 12.1* %; in data set [3] (50 µM), 10.3* %; in data set [3] (100 µM), 6.8* %; in data set [4] (25 µM), 24.7* %; in data set [4] (50 µM), 10.2* %; in data set [4] (100 µM), 5.6* %. For the same compound, the “Slope (%)” value is given as 66.7* % in data set [3] (25 µM); 51.5* % in data set [3] (50 µM); 47.3* % in data set [3] (100 µM); 41.4* % in data set [4] (25 µM); 30.8* % in data set [4] (50 µM); 25.5* % in data set [4] (100 µM). In addition, in the data set with human neuron-like cells, the “decreased the necrotic cell percentage by Aβ1-42” value stood at 68.38%. Besides, the “nuclear integrity and apoptosis by Aβ1-42 (Hoechst 33258)” value in data set [5] is “protected nuclear integrity and inhibited apoptosis”.
